Measurements taken from patent US4471115A, “Water soluble derivatives of cephalex and process for their preparation” (Neopharmed S.p.A., priority 1980, dated 1984).
Structures can show the parent of a compound that is named as a salt.

What was measured:
[1] = in vivo, po
pH of the water solution = assay type: physicochemical; conditions: water solution obtained in the preparation
Method: After about 10 minutes of stirring under the above conditions, a 50% solution of 14 g of lysine base was slowly added. The reaction mixture was little by little solubilized and the pH final value of the resulting solution was 7.5. The volume of the obtained solution was brought to the end value of 150 mls by adding cold distilled water. It was then sterile filtered and frozen in a prefreezer at -70° C. and finally lyophilized.

Solubility = assay type: physicochemical; conditions: for Solubility in alcohols: ethanol / absolute alcohols
[2] = Cephalexin microbiological title
clinical = conditions: human, in vivo, po
[3] = Toxicity in the rat (LD50); conditions: in vivo, po, per os
Description: (§1) Pharmacological and clinical tests have been carried out with the compounds of the invention and the results related to the lysine salt of 2-N-methylolcephalexin are hereinafter reported for illustrative purpose.

[4] = Toxicity in the mouse (LD50); conditions: in vivo
Description: as §1

[5] = well known; cited from earlier work

CC1=C(C(=O)O)N2C(=O)[C@@H](NC(=O)[C@H](N)c3ccccc3)[C@H]2SC1 [substance B, cephalexin monohydrated]
Presence in the blood stream [1]: higher
Time after administration at which actives concentrations are detected [1]: more than 6 hours

CC1=C(C(=O)O)N2C(=O)[C@@H](NC(=O)[C@H](NCO)c3ccccc3)[C@H]2SC1 [Example 2, Sodium salt of 2-N-methylol-cephalexin]
Final pH of the resulting solution (pH of the water solution): 7.1
Solubility in alcohols (Solubility): little soluble in ethanol and absolute alcohols
Solubility in water (Solubility): highly water soluble
Cephalexin microbiological title [2]: 99 to 102 % of theoretical value

CC1=C(C(=O)O)N2C(=O)[C@@H](NC(=O)[C@H](NCO)c3ccccc3)[C@H]2SC1 [Example 1, Lysine salt of 2-N-methylol-cephalexin]
Final pH of the resulting solution (pH of the water solution): 7.5
Solubility in alcohols (Solubility): little soluble in absoluble alcohols
Solubility in water (Solubility): cold soluble in water
dose excreted at 24 h (clinical): 87%
LD50 [3]: > 4000 mg/kg
Cephalexin microbiological title [2]: 99 to 100 % of theoretical value
LD50 ([4]; ip, intraperitoneal administration): 3100 mg/kg
LD50 ([4]; oral administration): > 4000 mg/kg

CC1=C(C(=O)O)N2C(=O)[C@@H](NC(=O)[C@H](N)c3ccccc3)[C@H]2SC1 [cephalexin, 7-(D-2-amino-2-phenylacetamido)-3-methyl-Δ^3-4-carboxylic acid]
Antibiotic utility [5]: wide spectrum antibiotic
